Key:
Assay type in all cases: in vivo
[1] = system: Spodoptera litura third-instar larvae; assay: Test Example 1: cabbage leaf immersion test, insecticidal ratio on Spodoptera litura third-instar larvae (spinetoram / spirotetramat); conditions: cabbage leaf immersed 60 seconds, four days after
Experimental: (§1) A flowable formulation containing 11.7 wt % of spinetoram (spinetoram J:spinetoram L=75:25 (weight ratio)) was diluted with water containing 0.02 vol % of a spreading agent (trade name: Sindain, manufactured by Sumitomo Chemical Co., Ltd.) so as to obtain a given concentration.
(§2) A flowable formulation containing 22.4 wt % of spirotetramat (trade name: Movento, manufactured by Bayer CropScience) was diluted with water containing 0.02 vol % of a spreading agent (trade name: Sindain, manufactured by Sumitomo Chemical Co., Ltd.) so as to obtain a given concentration.
The spinetoram water-diluted solution and spirotetramat water-diluted solution were mixed to prepare a test drug solution.
(§3) Cabbage was planted in a pot having a capacity of 860 ml and allowed to grow to 4-leaves stage. Leaves of the cabbage were cut one by one. One of the cabbage leaves was immersed in a test drug solution for 60 seconds. The cabbage leaf was air-dried, then, the cabbage leaf was placed in a cup having a capacity of 500 ml containing filter paper laid therein. Ten Spodoptera litura third-instar larvae were released in this cup. Four days after, life-or-death of the tested insects was observed. The results were corrected by the following formula, thereby calculating insecticidal ratio. The test was repeated three times. Insecticidal ratio (%)=100×(Mt−Mc)/(100−Mc)
Mt: insect death ratio (%) in test compound-treated area
Mc: insect death ratio (%) in test compound-non-treated area

[2] = system: Spodoptera litura third-instar larvae; assay: Test Example 2: cabbage leaf immersion test, insecticidal ratio on Spodoptera litura third-instar larvae (spinetoram / spiromesifen); conditions: cabbage leaf immersed 60 seconds, four days after
Experimental: as §1
(§4) A flowable formulation containing 22.9 wt % of spiromesifen (trade name: CLEAZAR, manufactured by Bayer CropScience) was diluted with water containing 0.02 vol % of a spreading agent (trade name: Sindain, manufactured by Sumitomo Chemical Co., Ltd.) so as to obtain a given concentration.
The spinetoram water-diluted solution and spiromesifen water-diluted solution were mixed to prepare a test drug solution.
as §3, with “From” for “The results were corrected by”, “observed results, the” for “following formula, thereby calculating”, “ratio was calculated in the same manner as in Test Example 1.” for “ratio.”, “times.” for “times. Insecticidal ratio (%)=100×(Mt−Mc)/(100−Mc)”

[3] = system: Tetranychus urticae female adult insects; assay: Test Example 3: kidney bean leaf piece spray test, insecticidal ratio on Tetranychus urticae female adults; conditions: sprayed on kidney bean leaf pieces, three days after
Experimental: as §1, §2, §4
These water-diluted solutions were mixed to prepare a test drug solution.
A kidney bean leaf piece having a diameter of about 2 cm was inoculated with 10 Tetranychus urticae female adult insects. Then, the test drug solution was sprayed in an amount of 0.3 ml per two pieces of the kidney bean leaves. Three days after, life-or-death of the female adult insects was observed. From the observed results, the insecticidal ratio was calculated in the same manner as in Test Example 1. The test was repeated three times.

spinetoram
Insecticidal ratio (%) ([1]; 0.73 ppm): 17.2%
Insecticidal ratio (%) ([2]; 0.73 ppm): 6.9%
Insecticidal ratio (%) ([3]; 12.5 ppm): 28.4%

Cc1cc(C)c(C2=C(OC(=O)CC(C)(C)C)C3(CCCC3)OC2=O)c(C)c1 [spiromesifen, 2-oxo-3-(2,4,6-trimethylphenyl)-1-oxaspiro[4,4]nona-3-en-4-yl 3,3-dimethylbutanoate]
Insecticidal ratio (%) ([2]; 112 ppm): 3.4%
Insecticidal ratio (%) ([3]; 3.2 ppm): 28.0%

CCOC(=O)OC1=C(c2cc(C)ccc2C)C(=O)N[C@]12CC[C@@H](OC)CC2 [spirotetramat, cis-4-(ethoxycarbonyloxy)-8-methoxy-3-(2,5-xylyl)-1-azaspiro[4,5]dec-3-en-2-one]
Insecticidal ratio (%) ([1]; 56 ppm): 10.3%
Insecticidal ratio (%) ([1]; 112 ppm): 20.7%
Insecticidal ratio (%) ([3]; 0.8 ppm): 0%
